Results as given in publication PMC9953335 (2022).

Columns and labels:
[1] = test system: cKIT1 (unlabelled) (DNA, G4) GGGAGGGCGCTGGGAGGAGGG; assay: CD titration; details: K+ (50 mM KCl); 10 mM Tris-HCl, pH 7.4, 25 °C; 1-10 equiv compound
[2] = test system: hTelo (unlabelled) (DNA, G4) GGGTTAGGGTTAGGGTTAGGG; assay: CD titration; details: K+ (50 mM KCl); 10 mM Tris-HCl, pH 7.4, 25 °C; 1-10 equiv compound

| binding [1] | binding [2] | Structure (SMILES) |
| --- | --- | --- |
| yes | yes | CN1[C]N(CCCN2[C]N(C)c3c2c(=O)n(C)c(=O)n3C)c2c1n(C)c(=O)n(C)c2=O.CN1[C]N(CCCN2[C]N(C)c3c2c(=O)n(C)c(=O)n3C)c2c1n(C)c(=O)n(C)c2=O.[Au+].[Au+] |
| yes | yes | CN1[C]N(CCCN2[C]N(C)c3ccccc32)c2ccccc21.CN1[C]N(CCCN2[C]N(C)c3ccccc32)c2ccccc21.[Au+].[Au+] |
